The numbers were not newly measured in PMC4621754, “Parasitic diarrheal disease: drug development and targets” (Frontiers in Microbiology, 2015), which cites them from elsewhere.

As usually defined, the IC50 is the concentration needed to halve the response being measured.

Like-named read-outs stand apart in the source and are kept apart here.

The subject of series [1] is E. histolytica.
The test system of series [2] is G. lamblia.
For series [3], the system named is I. belli.
Where [4] appears, read: HM1: IMSS strain, ref Wani et al., 2012b.
Where [5] appears, read: HM1:IMSS strain, ref Duque-Montaño et al., 2013.
Setting [6] is: in vitro, ref Torres-Gomez et al., 2008b.
The mark [7] stands for this setting: ref Hernández-Nunez et al., 2009.
[8] abbreviates: ref Navarrete-Vazquez et al., 2003.
The mark [9] stands for this setting: in vitro, ref Hernández-Nunez et al., 2009.

For the compound “1,1^∕-(10,15-diphenyl-21,23-dithiaporphine-5,20-diyl)bis[2-{[methyl(phenylmethyl)amino]methyl}-ferrocene] [Compound 34]”, the IC50 in series [1] (in vitro, HM1:IMSS strain, ref Bhat et al., 2009b) is 0.59 µM.

In the case of `Cc1ccc(/C=C/C(=O)c2ccc(C)cc2)cc1` [Compound 25, (2E)-1,3-bis(4-methylphenyl)prop-2-en-1-one], the IC50 in series [1] (setting [4]) was 4.19 µM. Take `COc1ccc(-c2nnnn2CC(=O)N2N=C(c3ccccc3)CC2c2ccc(OC)cc2)cc1` (stereo not shown) [Compound 26, 1-(4,5-dihydro-5-(4-methoxyphenyl)-3-phenylpyrazol-1-yl)-2-(5-(4-methoxyphenyl)-1H-tetrazol-1-yl)ethanone]: in series [1] (setting [4]), the IC50 was 1.16 µM. For the compound `O=[N+]([O-])c1ccc(S(=O)(=O)Nc2nc(NS(=O)(=O)c3ccc([N+](=O)[O-])cc3)nc(-c3ccc4c(c3)OCO4)n2)cc1` [Compound 27, N, N^∕-6-(1,3-benzodioxol-5-yl)-(1,3,5-triazine-2,4-diyl)-bis-4-nitrobenzene sulphonamide], in series [1] (ref Wani et al., 2012a), the IC50 was 1.02 µM.

Take `O=S(=O)(Nc1nc(-c2ccccc2)cc(-c2ccccc2Cl)n1)c1ccccc1` [Compound 28, N-[4-(2-chlorophenyl)-6-phenylpyrimidin-2-yl]-benzenesulphonamide]: the half-maximal inhibitory concentration (IC50) in series [1] (in vitro, ref Siddiqui and Azam, 2014) was 0.44 µM. For `COc1ccc(C2ON=C(c3ccc([N+](=O)[O-])s3)O2)cc1` (stereo not shown) [Compound 29, 5-(4-methoxy-phenyl)-3-(5-nitro-2-thienyl)-1,4,2-dioxazole], the IC50 in series [1] (in vitro, ref Irfan et al., 2010) was 1.6 µM. For the compound `Cc1cccc(NC(=S)NN=Cc2ccc(-c3c4nc(c(-c5ccccc5)c5ccc([nH]5)c(-c5ccccc5)c5nc(c(-c6ccccc6)c6ccc3[nH]6)C=C5)C=C4)cc2)c1` [Compound 30, 4-(3-methylphenyl)-1-{[4-(10,15,20-triphenylporphyrin-5-yl)phenyl]methylidene}thiosemicarbazide], in series [1] (ref Bhat et al., 2008), the IC50 is 0.538 µM. Turning to `CC(=NNC(=S)NCc1ccc(C)cc1)c1c(O)ccc2ccc(=O)oc12` [Compound 31, 7-hydroxy-8-acetylcoumarin-N(4,4)methylbenzyl thiosemicarbazone], in series [1] (ref Iqbal et al., 2009), the IC50 is 1.06 µM.

Take `O=[N+]([O-])c1ccc(NC(=S)N2N=C(c3ccccc3)CC2c2ccc(C3CC(c4ccccc4)=NN3C(=S)Nc3ccc([N+](=O)[O-])cc3)cc2)cc1` (stereo not shown) [Compound 32]: in series [1] (ref Bhat et al., 2009a), the IC50 is 0.42 µM. Regarding `CC(C)c1ccccc1C1CC(c2ccccc2)=NN1c1nc2nc3ccccc3nc2s1` (stereo not shown) [Compound 33, 2-{5-[2-(methylethyl)phenyl]-3-phenyl-2-pyrazolinyl}-1,3-thiazolino[5,4-b]quinoxaline], the IC50 in series [1] (HM1:IMSS strain, ref Budakoti et al., 2009) was 0.17 µM. For `COC(=O)c1ccc2c(c1)[n+]([O-])c(C(C)=O)c(C)[n+]2[O-]` [Compound 37, methyl 2-acetyl-3-methyl-quinoxaline-7-carboxylate 1,4-di-N-oxide], the IC50 in series [1] (setting [5]) is 1.41 µM. Regarding `CCOC(=O)c1ccc2c(c1)[n+]([O-])c(C(N)=O)c(C)[n+]2[O-]` [Compound 38, ethyl 2-amide-3-methylquinoxaline-7-carboxylate 1,4-di-N-oxide], the IC50 in series [1] (setting [5]) is 1.47 µM. Take `COc1ccc(NC(=O)C(N)CCSC(F)(F)F)cc1OC` (stereo not shown) [Compound 40, 3,4-dimethoxyanilide trifluoromethionine]: the IC50 in series [1] (in vitro, ref Sato et al., 2010) is 1.19 µM.

Consider `COc1ccc2[nH]c(-c3ccc(OCCCCCOc4ccc(-c5nc6cc(OC)ccc6[nH]5)cc4)cc3)nc2c1` [Compound 41, 1,5-bis[4-(5-methoxy-1H-benzimidazole-2-yl)phenoxy]pentane], for which the IC50 in series [1] (setting [6]) is 0.109 µM. With `Cc1nc([N+](=O)[O-])cn1CC(=O)NCc1ccccc1` [Compound 42, N-benzyl-2-(2-methyl-4-nitro-1H-imidazol-1-yl)acetamide], in series [1] (setting [7]), the IC50 was 3.96 µM. Regarding `Cc1ccc(S(=O)(=O)n2cc([N+](=O)[O-])nc2C)cc1` [Compound 43, 2-methyl-1-[(4-methylphenyl)sulfonyl]-4-nitro-1H-imidazole], the 50% inhibitory concentration (IC50) in series [1] (setting [7]) is 3.55 µM. `O=[N+]([O-])c1cccc(/C=N/Nc2ccccc2)c1` [Compound 44, (E)-1-(3-nitrobenzylidene)-2-phenylhydrazine]: in series [1] (in vitro, HM1:IMSS strain, ref Toledano-Magana et al., 2015), the IC50 was 0.84 µM.

In the case of `COc1ccc(Nc2c(C#N)cnc3sccc23)cc1` [Compound 58, 4-(4-methoxyphenylamino)thieno[2,3-b]pyridine-5-carbonitrile], the giardicidal effect entry in series [2] (ref Bernardino et al., 2006) was “excellent giardicidal effect”.

On to `COc1cc(-c2nc3cc(C)ccc3[nH]2)ccc1OCCCCCOc1ccc(-c2nc3cc(C)ccc3[nH]2)cc1OC` [Compound 59, 1,5-bis[2-methoxy-4-(5-methyl-1H-benzimidazole-2-yl)phenoxy] pentane], for which the IC50 in series [2] (setting [6]) is 0.372 µM. For the same compound, in series [2] (ref Torres-Gomez et al., 2008a), the IC50 is 0.372 µM, the “folds more potent than metronidazole” value was 3 folds and the “folds more potent than pentamidine” value was 9 folds. For the same compound, in series [2] (ref Torres-Gomez et al., 2008b), the “fold more activity than metronidazole” value is recorded as 3 fold and the “fold more activity than pentamidine” value was 9 fold. Turning to `Cn1c(C(F)(F)F)nc2cc(Cl)ccc21` [Compound 60, 5-chloro-1-methyl-2-(trifluoromethyl)benzimidazole], the IC50 in series [2] (in vitro, ref Gabriel Navarrete-Vaa Zquez et al., 2001) is 0.042 µM. Turning to `COc1ccc(C(=O)/C=C/c2ccccc2F)cc1` [Compound 61, (E)-3-(6-flourophenyl)-1-(4-methoxyphenyl)prop-2-en 1-one], in series [2] (ref Montes-Avila et al., 2009), the IC50 is 12.7 µM. As for `CCCSc1ccc2nc(C(F)(F)F)n(C)c2c1` [Compound 63, 1-methyl-6-(propylthio)-2-(trifluoromethyl)-1H-benzimidazole], the IC50 in series [2] (setting [8]) was 1.4 µM. As for `CCCSc1ccc2[nH]c(C(F)(F)F)nc2c1` [Compound 64, 5(6)-(propylthio) -2-(trifluoromethyl)-1H-benzimidazole], the IC50 in series [2] (setting [8]) is 1.52 µM.

On to `Cn1c(C(F)(F)F)nc2cc(C(=O)c3ccccc3)ccc21` [Compound 65, 5-benzoyl-1-methyl-2-(trifluoromethyl)-1H-benzimidazole], for which the IC50 in series [2] (setting [8]) is 1.1 µM. Take `Cn1c(C(F)(F)F)nc2ccc(C(=O)c3ccccc3)cc21` [Compound 66, 6-benzoyl-1-methyl-2-(trifluoromethyl)-1H-benzimidazole]: the IC50 in series [2] (setting [8]) was 1.28 µM.

For `COc1cc(NC(c2coc3ccccc3c2=O)c2nnnn2C2CCCCC2)cc(OC)c1OC` (stereo not shown) [Compound 67, 3-((1-cyclohexyl-1H-tetrazol-5-yl)((3,4,5-trimethoxyphenyl)amino)methyl)-4H-chromen-4-one], the IC50 in series [2] (ref Cano et al., 2014) was 171 µM.

Take `Cc1nc([N+](=O)[O-])cn1CC(=O)Nc1ccc(C#N)cc1` [Compound 72, N-(4-cyanophenyl)-2-(2-methyl-4-nitro-1H-imidazol-1-yl) acetamide]: the IC50 in series [2] (setting [9]) is 11.2 µM. In the case of `Cc1nc([N+](=O)[O-])cn1S(=O)(=O)c1ccc([N+](=O)[O-])cc1` [Compound 73, 2-methyl-4-nitro-1-[(4-nitrophenyl)sulfonyl]-1H-imidazole], the IC50 in series [2] (setting [9]) was 7.5 µM. As to `O=C1OCCN1/N=C/c1ccc([N+](=O)[O-])o1` [furazolidone, Furazolidone], in series [3] (ref Trier et al., 1974, Syrkis et al., 1975, Butler and De Boer, 1981, Weiss et al., 1988), the “cure of I. belli induced diarrhea” value is given as “cure the I. belli induced diarrhea but to lesser extent”.

Take `CCc1nc(N)nc(N)c1-c1ccc(Cl)cc1` [pyrimethamine]: the “cure of diarrheal disease caused by I. belli” value in series [3] (ref Ferguson et al., 1980, Ebrahimzadeh and Bottone, 1996) is “cure the diarrheal disease”. Turning to Ni(Fctpy)2][PF6]2 [Compound 22], the “activity against E. histolytica” value in series [1] (ref Juneja et al., 2014) is given as “most promising activity”. Turning to cyclosporine A [reference compound], in series [1] (ref Carrero et al., 2004), the “proliferation of E. histolytica” value is listed as “inhibits proliferation”.
